One experiment addresses T1, human FGFR4 (Homo sapiens, UniProt P22455).
T1 construct: human FGFR4 cytoplasmic domain (460-802); GST (N); purchased Carna Biosciences 08-136
Description: FGFR4 enzymatic assay (HTRF KinEASE-TK). The note with it: wild-type human FGFR4 cytoplasmic domain (460-802), GST-tag; 60 min preincubation at 25° C.; ATP 200 μM; read-out: Potency (IC50), FGFR4 enzymatic assay. Format: biochemical. The protocol: The ability of compounds to inhibit human FGFR4 tyrosine kinase activities was determined using a commercially available HTRF® KinEASE™-TK kit (CISBIO, Cat #62TK0PEC) according to the manufacturer's protocol. Wild-type human FGFR4 cytoplasmic domain (460-802) with N-terminal GST-tag was purchased from Carna Biosciences (Carna, Cat #08-136) and used in the kinase enzymatic assay. This assay, run in a 384-well plate format, is a generic method for measuring tyrosine kinase activities using one substrate and a universal detection system. It involves two steps: (1) Enzymatic step: the biotin labeled TK Substrate is incubated with the kinase and then ATP is added to start the enzymatic reaction; during this step, FGFR4 will phosphorylate the TK Substrate-biotin. (2) Detection step: The TK-Antibody labeled with Eu^3+-Cryptate can recognize the phosphorylated TK Substrate-biotin. When the streptavidin-XL665 conjugate binds the biotin, a FRET signal will be detected. Briefly, human FGFR4 (0.25 μg/ml) in the enzymatic buffer solutions (250 mM HEPES, pH7.0, 0.1% NaN3, 0.05% BSA, 0.5 mM Orthovanadate) were mixed with various concentrations of the test compound (dissolved in 100% DMSO). These solutions were incubated for 60 min at 25° C., and subsequently a mixture of substrate peptide and ATP was added with the final peptide and ATP concentrations at 0.3 μM and 200 μM respectively. The final reaction mixture of enzyme-substrate-ATP-compound was incubated for 40 min at 37° C. Meanwhile the detection mixture containing the TK-antibody and Streptavidin-XL665 diluted in the detection buffer (50 mM HEPES, pH7.0, with additives) was prepared, and added to the reaction mixture at final concentrations of 25 nM and 18.5 nM respectively. After incubation for 60 min at 25° C., the FRET signal of the final solution was measured at 665 nm and 612 nm emissions on a TECAN Spark 10M instrument (TECAN). The percent (%) inhibition at each concentration of a compound was calculated relative to the FRET signal in the Max and Min control wells contained within each assay plate. The Max control wells contained enzyme and substrate as 0% inhibition, and the Min control wells only contained substrate without enzyme as 100% inhibition. The concentrations and percent inhibition values for a test compound are plotted and the concentration of the compound required to achieve 50% inhibition (IC50) was determined with a four-parameter logistic dose response equation. Dose-response curves were generated using Prism (GraphPad Software, La Jolla, CA, US) to calculate IC50 values for each compound tested.
In general terms: Time-resolved FRET reads energy transfer from a long-lived donor to a nearby acceptor.

In the next experiment the test system is Hep3B cells. Description: Cell-based FGFR4 proliferation assay (CellTiter-Glo). The following applies: incubated with test compound for 3 days, CellTiter-Glo luminescence, read-out: Potency (IC50), Hep3B cell proliferation. The procedure: Hepatocellular carcinoma cell line Hep3B (ATCC, Cat #HB-8064) were cultured at 37° C., 5% CO2 in ATCC-formulated Eagle's Minimum Essential Medium supplemented with 10% fetal bovine serum; 1% Penicillin-Streptomycin.
Cell line: Hepatocellular carcinoma cell line Hep3B (ATCC, Cat #HB-8064).
In this assay, Hep3B cells are seeded in 384-well microplates, and after exposure to experimental compounds for […], CellTiter-Glo® Luminescent Cell Viability Assay kit (Promega, Cat #G7572) are used to determine the number of viable cells in the culture based on quantitation of the ATP present, which signals the presence of metabolically active cells. Luminescent signal is proportional to the amount of ATP present. The amount of ATP is directly proportional to the number of cells present in the culture, allowing drug-induced effects on cell proliferation to be measured.
Hep3B cells were plated at a density of 4×10^4/ml cells in a 384-well black/clear microplate with 20 μL per well of MEM Medium (Gibco Cat. #11095-080) supplemented with 10% fetal bovine serum; 1% Penicillin-Streptomycin, and cultured overnight at 37° C., 5% CO2. Various concentrations of the test compound (dissolved in 100% DMSO) were added to the wells of the cell plate. The cells were incubated with the test compound for 3 days at 37° C., 5% CO2. 5 μL of CellTiter-Glo® Reagent was added to each well of the cell plate. The cell plate was incubated for 5 min at 25° C. on a plate shaker (IKA MTS 2/4) at 300 rpm. Luminescence signals were read on a TECAN Spark 10M instrument (TECAN). […] The concentrations and percent inhibition values for a test compound were plotted and the concentration of the compound required to achieve 50% inhibition (IC50) is determined with a four-parameter logistic dose response equation. Dose-response curves were generated using Prism (GraphPad Software, La Jolla, CA, US) to calculate IC50 values for each compound tested.

Structures are written as SMILES. Where two headings read alike, the source gives them in different places.

T1 sequence (P22455 460-802): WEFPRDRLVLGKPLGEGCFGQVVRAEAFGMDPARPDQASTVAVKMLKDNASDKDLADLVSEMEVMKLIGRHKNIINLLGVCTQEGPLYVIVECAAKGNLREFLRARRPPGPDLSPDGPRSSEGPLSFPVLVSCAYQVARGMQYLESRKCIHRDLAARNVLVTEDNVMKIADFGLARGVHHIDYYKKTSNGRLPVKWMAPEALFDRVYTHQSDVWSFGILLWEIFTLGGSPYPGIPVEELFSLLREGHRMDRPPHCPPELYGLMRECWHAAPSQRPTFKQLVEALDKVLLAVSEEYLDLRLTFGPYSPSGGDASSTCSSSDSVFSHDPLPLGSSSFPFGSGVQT

`C=CC(=O)Nc1c[nH]nc1-c1n[nH]c2c1CCC(c1c(F)c(OC)cc(OC)c1F)C2` (single isomer, unassigned) [Compound S15-P2, N-(3-(6-(2,6-difluoro-3,5-dimethoxyphenyl)-4,5,6,7-tetrahydro-1H-indazol-3-yl)-1H-pyrazol-4-yl)acrylamide]: the IC50 on human FGFR4 and in the experiment on Hep3B cells was under 10 nM in each case. Consider `C=CC(=O)Nc1cn(CCN(C)C)nc1-c1n[nH]c2c1CCC[C@H](c1c(F)c(OC)cc(OC)c1F)C2` [Compound S31, (S)—N-(3-(7-(2,6-difluoro-3,5-dimethoxyphenyl)-1,4,5,6,7,8-hexahydrocyclohepta[c]pyrazol-3-yl)-1-(2-(dimethylamino)ethyl)-1H-pyrazol-4-yl)acrylamide], for which the IC50 on human FGFR4 is under 10 nM; with Hep3B cells (Homo sapiens, Hep3B, 72 h), 10 to 100 nM.

For the compound `COC(=O)/C=C/C(=O)Nc1cnn(C)c1-c1n[nH]c2c1CC[C@H](c1c(F)c(OC)cc(OC)c1F)C2` [Compound S22, methyl (S,E)-4-((5-(6-(2,6-difluoro-3,5-dimethoxyphenyl)-4,5,6,7-tetrahydro-1H-indazol-3-yl)-1-methyl-1H-pyrazol-4-yl)amino)-4-oxobut-2-enoate], the IC50 on human FGFR4 is over 100 nM. On the same count and under the same terms, the result for `C=C(C)C(=O)Nc1cnn(C)c1-c1n[nH]c2c1CCC(c1c(Cl)c(OC)cc(OC)c1Cl)C2` (single isomer, unassigned) [Compound S2-P2, N-(5-(6-(2,6-dichloro-3,5-Dimethoxyphenyl)-4,5,6,7-tetrahydro-1H-indazol-3-yl)-1-methyl-1H-pyrazol-4-yl) Methacrylamide] reads over 100 nM; that for `C=CC(=O)N[C@@H]1COC[C@@H]1c1n[nH]c2c1CC[C@H](c1c(F)c(OC)cc(OC)c1F)C2` [Compound S13-P2, N-((3S,4S)-4-((S)-6-(2,6-difluoro-3,5-dimethoxyphenyl)-4,5,6,7-tetrahydro-1H-indazol-3-yl)tetrahydrofuran-3-yl)acrylamide], over 100 nM.

Regarding `COc1cc(OC)c(F)c(C2CCc3c(-c4c(NC(C)=O)cnn4C)n[nH]c3C2)c1F` (single isomer, unassigned) [Compound S19-P1, N-(5-(6-(2,6-difluoro-3,5-dimethoxyphenyl)-4,5,6,7-tetrahydro-1H-indazol-3-yl)-1-methyl-1H-pyrazol-4-yl)acetamide], the IC50 on human FGFR4 was over 100 nM. Still for that read-out and setting: as for `C=CC(=O)N[C@@H]1COC[C@@H]1c1n[nH]c2c1CC[C@H](c1cc(OC)cc(OC)c1F)C2` [Compound S13-P4, N-((3S,4S)-4-((S)-6-(2-fluoro-3,5-dimethoxyphenyl)-4,5,6,7-tetrahydro-1H-indazol-3-yl)tetrahydrofuran-3-yl)acrylamide], the figure is over 100 nM; as for `C=CC(=O)Nc1cnn(CC)c1-c1n[nH]c2c1CC[C@@H](c1cc(OC)cc(OC)c1F)C2` [Compound S14-P3, (R)—N-(1-ethyl-5-(6-(2-fluoro-3,5-dimethoxyphenyl)-4,5,6,7-tetrahydro-1H-indazol-3-yl)-1H-pyrazol-4-yl) acrylamide], over 100 nM.

On to `C=CC(=O)N[C@H]1COC[C@H]1c1n[nH]c2c1CC[C@H](c1c(Cl)c(OC)cc(OC)c1Cl)C2` [Compound S10-P4, N-((3R,4R)-4-((S)-6-(2,6-dichloro-3,5-dimethoxyphenyl)-4,5,6,7-tetrahydro-1H-indazol-3-yl)tetrahydrofuran-3-yl)acrylamide], for which, on human FGFR4, the IC50 was over 100 nM. As for `C=CC(=O)Nc1ncn(C)c1-c1n[nH]c2c1CCC(c1c(F)c(OC)cc(OC)c1F)C2` (single isomer, unassigned) [Compound S3-P1, N-(5-(6-(2,6-Difluoro-3,5-dimethoxyphenyl)-4,5,6,7-tetrahydro-1H-indazol-3-yl)-1-methyl-1H-imidazol-4-yl) Acrylamide], the IC50 on human FGFR4 is over 100 nM; in the experiment with Hep3B cells (Homo sapiens, Hep3B, 72 h), over 100 nM. With `COc1cc(OC)c(F)c([C@H]2CCc3c(-c4c(NC(=O)/C=C/C(=O)OC(C)C)cnn4C)n[nH]c3C2)c1F` [Compound S23, isopropyl (S,E)-4-((5-(6-(2,6-difluoro-3,5-dimethoxyphenyl)-4,5,6,7-tetrahydro-1H-indazol-3-yl)-1-methyl-1H-pyrazol-4-yl)amino)-4-oxobut-2-enoate], on human FGFR4, the IC50 is over 100 nM. Same read-out and setting: the result for `C=CC(=O)NC1CCOCC1c1n[nH]c2c1CC[C@H](c1c(Cl)c(OC)cc(OC)c1Cl)C2` (single isomer, unassigned) [Compound S7-P2] reads over 100 nM; that for `C=CC(=O)N[C@H]1COC[C@H]1c1n[nH]c2c1CC[C@H](c1c(F)c(OC)cc(OC)c1F)C2` [Compound S13-P1, N-((3R,4R)-4-((S)-6-(2,6-difluoro-3,5-dimethoxyphenyl)-4,5,6,7-tetrahydro-1H-indazol-3-yl)tetrahydrofuran-3-yl)acrylamide], over 100 nM. As for `[2H]C([2H])([2H])n1ncc(NC(=O)C=C)c1-c1n[nH]c2c1CCC(c1c(F)c(OC)cc(OC)c1F)C2` (single isomer, unassigned) [Compound S16-P2, N-(5-(6-(2,6-difluoro-3,5-dimethoxyphenyl)-4,5,6,7-tetrahydro-1H-indazol-3-yl)-1-(methyl-d3)-1H-pyrazol-4-yl)acrylamide], the figures for the IC50 at human FGFR4 and with Hep3B cells were under 10 nM and 10 to 100 nM, respectively.

Take `C=CC(=O)N[C@H]1COC[C@H]1c1n[nH]c2c1CC[C@@H](c1c(Cl)c(OC)cc(OC)c1Cl)C2` [Compound S10-P1, N-((3R,4R)-4-((R)-6-(2,6-dichloro-3,5-dimethoxyphenyl)-4,5,6,7-tetrahydro-1H-indazol-3-yl)tetrahydrofuran-3-yl)acrylamide]: the IC50 on human FGFR4 was over 100 nM. Still for that read-out and setting: as for `CCC(=O)Nc1cnn(C)c1-c1n[nH]c2c1CCC(c1c(F)c(OC)cc(OC)c1F)C2` (single isomer, unassigned) [Compound S20-P1, N-(5-(6-(2,6-difluoro-3,5-dimethoxyphenyl)-4,5,6,7-tetrahydro-1H-indazol-3-yl)-1-methyl-1H-pyrazol-4-yl)propionamide], the figure is over 100 nM. As to `C=CC(=O)Nc1cn(CCN(C)C)nc1-c1n[nH]c2c1CCC[C@@H](c1c(F)c(OC)cc(OC)c1F)C2` [Compound S32, (R)—N-(3-(7-(2,6-difluoro-3,5-dimethoxyphenyl)-1,4,5,6,7,8-hexahydrocyclohepta[c]pyrazol-3-yl)-1-(2-(dimethylamino)ethyl)-1H-pyrazol-4-yl)acrylamide], the IC50 at human FGFR4 was under 10 nM; in the experiment with Hep3B cells (Homo sapiens, Hep3B, 72 h), under 10 nM. Consider `COc1cc(OC)c(F)c([C@H]2CCc3c(-c4c(NC(=O)C5CO5)cnn4C)n[nH]c3C2)c1F` (stereo partly drawn) [Compound S24, N-(5-((S)-6-(2,6-difluoro-3,5-dimethoxyphenyl)-4,5,6,7-tetrahydro-1H-indazol-3-yl)-1-methyl-1H-pyrazol-4-yl)oxirane-2-carboxamide], for which the IC50 at human FGFR4 was over 100 nM. On the same count and under the same terms, the result for `C=CC(=O)NC1CCOCC1c1n[nH]c2c1CC[C@H](c1c(Cl)c(OC)cc(OC)c1Cl)C2` (single isomer, unassigned) [Compound S7-P1] reads over 100 nM.
